Measurements taken from patent US20080009418A1, “Selective Inhibitors” (Alchemia LTD., priority 2004, published 2008).

Columns and labels:
[1] = target: T1, Mouse urotensin (mUR2) (Mus musculus, UniProt Q8VIH9); assay: Radioligand binding, mouse urotensin mUR2 membranes, FlashPlate, [125I]-Urotensin II; conditions: compound at 10 μM; [125I]-Urotensin II
T1 construct: purchased Perkin Elmer Biosignal
T1 sequence (Q8VIH9 1-385): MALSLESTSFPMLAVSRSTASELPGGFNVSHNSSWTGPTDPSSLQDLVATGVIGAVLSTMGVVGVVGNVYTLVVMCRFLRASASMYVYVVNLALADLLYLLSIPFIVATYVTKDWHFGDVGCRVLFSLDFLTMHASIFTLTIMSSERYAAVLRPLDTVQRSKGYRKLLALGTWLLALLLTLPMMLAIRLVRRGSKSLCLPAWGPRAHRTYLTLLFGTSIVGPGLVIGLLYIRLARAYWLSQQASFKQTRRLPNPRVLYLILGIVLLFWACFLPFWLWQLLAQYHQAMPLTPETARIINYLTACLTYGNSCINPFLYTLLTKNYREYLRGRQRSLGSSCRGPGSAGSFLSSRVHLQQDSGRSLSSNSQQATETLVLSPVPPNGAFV
Summary of the method: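 Cloned mouse urotensin (mUR2) receptor membranes from Perkin Elmer Biosignal were immobilized in FlashPlate microplates using a proprietary coating. Each well got 19.5 μl buffer, then 0.5 μl of DMSO, reference ligand, or compound. Adding 5 μl of [125I]-Urotensin II, diluted to 5× final concentration in binding buffer, started binding. Plates were sealed with TopSeal-A and incubated 1 hour at room temperature in the dark. Wells were counted for 30 seconds each on a TopCount after a 60-second delay, and percentage inhibition was calculated.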

[2] = target: T2, Human melanocortin (MC5) (Homo sapiens, UniProt P33032); assay: Radioligand binding, human melanocortin MC5 membranes, FlashPlate, [125I]-NDP-αMSH; conditions: compound at 10 μM; [125I]-NDP-αMSH
T2 construct: purchased Perkin Elmer Biosignal
Summary of the method: (§1)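 Cloned human receptor membranes were coated onto FlashPlate wells and incubated with radioligand and compound (added from a 0.5 mM DMSO daughter plate) for 1 hour at room temperature in the dark. Scintillation counting gave percent inhibition, with DMSO defining total and reference ligand defining non-specific binding.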

[3] = target: T3, Human μ-opioid (MOP) (Homo sapiens, UniProt P35372); assay: Radioligand binding, human μ-opioid (MOP) membranes, FlashPlate, [3H]-Naloxone; conditions: compound at 10 μM; [3H]-Naloxone
T3 construct: purchased Perkin Elmer Biosignal
Summary of the method: as §1

[4] = target: T4, Human neurokinin (NK1) (Homo sapiens, UniProt P25103); assay: Radioligand binding, human neurokinin NK1 membranes, filtration, [125I]-Substance P; conditions: compound at 10 μM; [125I]-Substance P
T4 construct: purchased Perkin Elmer Biosignal
Summary of the method: (§2)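 Filtration binding on cloned human receptor membranes (1 Unit/well), [125I]-Substance P for NK1 and [3H]-Diprenorphine for KOP, 1 h at room temperature. Filters PEI-presoaked, washed with cold 50 mM Tris-HCl pH 7.4, counted by scintillation; percent inhibition calculated, reference ligand defining non-specific binding.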

[5] = target: T5, Human neuropeptide Y (NPY-Y1) (Homo sapiens, UniProt P25929); assay: Radioligand binding, human neuropeptide Y NPY-Y1 membranes, FlashPlate, [125I]-PYY; conditions: compound at 10 μM; [125I]-PYY
T5 construct: purchased Perkin Elmer Biosignal
T5 sequence (P25929 1-384): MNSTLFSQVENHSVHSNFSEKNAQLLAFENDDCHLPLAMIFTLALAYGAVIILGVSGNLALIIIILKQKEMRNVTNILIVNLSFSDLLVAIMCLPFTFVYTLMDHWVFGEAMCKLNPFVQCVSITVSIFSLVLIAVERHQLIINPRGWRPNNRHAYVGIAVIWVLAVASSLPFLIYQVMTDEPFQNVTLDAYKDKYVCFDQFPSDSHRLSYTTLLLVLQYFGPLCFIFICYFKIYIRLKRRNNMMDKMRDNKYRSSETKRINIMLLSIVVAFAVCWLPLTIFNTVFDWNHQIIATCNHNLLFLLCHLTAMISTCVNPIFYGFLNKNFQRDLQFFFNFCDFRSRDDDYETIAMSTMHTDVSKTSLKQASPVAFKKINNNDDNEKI
Summary of the method: as §1

[6] = target: T6, Human Melanocortin (MC3) (Homo sapiens, UniProt P41968); assay: Radioligand binding, human melanocortin MC3 membranes, FlashPlate, [125I]-NDP-αMSH; conditions: compound at 10 μM; [125I]-NDP-αMSH
T6 construct: purchased Perkin Elmer Biosignal
Summary of the method: as §1

[7] = target: T7, Human δ-opioid (DOP) (Homo sapiens, UniProt P41143); assay: Radioligand binding, human δ-opioid (DOP) membranes, FlashPlate, [3H]-Bremazocine; conditions: compound at 10 μM; [3H]-Bremazocine
T7 construct: purchased Perkin Elmer Biosignal
Summary of the method: as §1

[8] = target: T8, Human melanin-concentrating hormone (MCH1) (Homo sapiens, UniProt Q99705); assay: Radioligand binding, human melanin-concentrating hormone MCH1 membranes, FlashPlate, [125I]-S36057; conditions: compound at 10 μM; [125I]-S36057
T8 construct: purchased Perkin Elmer Biosignal
Summary of the method: as §1

[9] = target: T9, Human κ-Opioid (KOP) (Homo sapiens, UniProt P41145); assay: Radioligand binding, human κ-opioid (KOP) membranes, filtration, [3H]-Diprenorphine; conditions: compound at 10 μM; [3H]-Diprenorphine
T9 construct: purchased Perkin Elmer Biosignal
Summary of the method: as §2

[10] = target: T10, Human Melanocortin (MC4) (Homo sapiens, UniProt P32245); assay: Radioligand binding, human melanocortin MC4 membranes, FlashPlate, [125I]-NDP-αMSH; conditions: compound at 10 μM; [125I]-NDP-αMSH
T10 construct: purchased Perkin Elmer Biosignal
Summary of the method: as §1

[11] = target: T11, Human opioid (ORL1) (Homo sapiens, UniProt P41146); assay: Radioligand binding, human opioid ORL1 membranes, FlashPlate, [125I]-Nociceptin; conditions: compound at 10 μM; [125I]-Nociceptin
T11 construct: purchased Perkin Elmer Biosignal
Summary of the method: as §1

T7 sequence (P41143 whole entry): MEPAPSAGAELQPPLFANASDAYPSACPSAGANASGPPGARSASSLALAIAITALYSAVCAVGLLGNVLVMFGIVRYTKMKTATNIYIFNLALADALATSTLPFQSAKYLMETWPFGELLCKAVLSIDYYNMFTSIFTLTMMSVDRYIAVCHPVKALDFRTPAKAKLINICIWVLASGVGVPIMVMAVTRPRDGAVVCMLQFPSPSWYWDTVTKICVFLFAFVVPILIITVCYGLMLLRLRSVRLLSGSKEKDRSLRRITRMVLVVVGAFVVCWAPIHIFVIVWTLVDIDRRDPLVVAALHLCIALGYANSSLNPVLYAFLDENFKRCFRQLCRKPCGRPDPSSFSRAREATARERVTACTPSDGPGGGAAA
T8 sequence (Q99705 whole entry): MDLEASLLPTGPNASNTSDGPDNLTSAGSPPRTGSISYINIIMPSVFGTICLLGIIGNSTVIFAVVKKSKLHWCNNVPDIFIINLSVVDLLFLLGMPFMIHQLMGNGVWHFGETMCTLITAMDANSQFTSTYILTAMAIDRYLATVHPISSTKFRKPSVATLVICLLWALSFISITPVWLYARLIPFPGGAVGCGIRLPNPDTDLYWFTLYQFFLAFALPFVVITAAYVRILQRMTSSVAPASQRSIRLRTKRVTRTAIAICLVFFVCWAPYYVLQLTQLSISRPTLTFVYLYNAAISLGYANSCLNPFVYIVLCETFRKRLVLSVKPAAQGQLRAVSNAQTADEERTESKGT
T4 sequence (P25103 whole entry): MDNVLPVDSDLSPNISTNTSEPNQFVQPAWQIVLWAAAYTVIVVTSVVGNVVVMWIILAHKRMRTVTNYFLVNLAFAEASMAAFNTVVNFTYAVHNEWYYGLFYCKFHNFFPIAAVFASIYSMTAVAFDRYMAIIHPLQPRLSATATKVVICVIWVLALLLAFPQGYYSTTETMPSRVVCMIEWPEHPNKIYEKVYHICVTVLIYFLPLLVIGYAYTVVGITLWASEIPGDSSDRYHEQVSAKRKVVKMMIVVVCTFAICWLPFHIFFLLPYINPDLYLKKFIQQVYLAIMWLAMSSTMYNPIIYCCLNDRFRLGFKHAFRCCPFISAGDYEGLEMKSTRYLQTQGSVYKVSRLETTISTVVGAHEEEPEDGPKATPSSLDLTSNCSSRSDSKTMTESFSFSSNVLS
T10 sequence (P32245 whole entry): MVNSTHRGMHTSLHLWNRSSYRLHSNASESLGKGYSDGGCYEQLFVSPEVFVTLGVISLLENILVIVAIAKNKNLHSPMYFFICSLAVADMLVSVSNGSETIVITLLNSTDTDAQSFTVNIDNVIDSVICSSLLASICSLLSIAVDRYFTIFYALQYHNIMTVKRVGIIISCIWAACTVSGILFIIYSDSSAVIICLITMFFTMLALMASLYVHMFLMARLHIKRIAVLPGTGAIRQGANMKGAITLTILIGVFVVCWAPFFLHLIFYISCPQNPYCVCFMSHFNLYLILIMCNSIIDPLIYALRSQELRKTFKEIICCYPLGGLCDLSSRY
T6 sequence (P41968 whole entry): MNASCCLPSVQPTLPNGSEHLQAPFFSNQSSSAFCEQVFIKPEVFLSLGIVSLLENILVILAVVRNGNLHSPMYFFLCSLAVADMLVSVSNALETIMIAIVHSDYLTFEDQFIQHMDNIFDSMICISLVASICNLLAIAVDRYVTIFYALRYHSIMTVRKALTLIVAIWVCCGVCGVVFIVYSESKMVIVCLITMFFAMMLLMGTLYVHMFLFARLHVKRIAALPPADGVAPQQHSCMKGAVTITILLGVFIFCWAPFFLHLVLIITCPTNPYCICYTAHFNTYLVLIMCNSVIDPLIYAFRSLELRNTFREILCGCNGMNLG
T11 sequence (P41146 whole entry): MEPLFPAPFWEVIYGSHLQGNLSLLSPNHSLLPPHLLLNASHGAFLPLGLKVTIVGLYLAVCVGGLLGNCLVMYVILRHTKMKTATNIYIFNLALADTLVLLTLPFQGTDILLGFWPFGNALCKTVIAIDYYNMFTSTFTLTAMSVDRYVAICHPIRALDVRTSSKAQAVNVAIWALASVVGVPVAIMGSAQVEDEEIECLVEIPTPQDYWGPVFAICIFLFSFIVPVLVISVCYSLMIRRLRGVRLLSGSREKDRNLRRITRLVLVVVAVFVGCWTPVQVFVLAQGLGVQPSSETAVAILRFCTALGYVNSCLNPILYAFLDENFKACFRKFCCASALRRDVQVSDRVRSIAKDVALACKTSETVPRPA
T9 sequence (P41145 whole entry): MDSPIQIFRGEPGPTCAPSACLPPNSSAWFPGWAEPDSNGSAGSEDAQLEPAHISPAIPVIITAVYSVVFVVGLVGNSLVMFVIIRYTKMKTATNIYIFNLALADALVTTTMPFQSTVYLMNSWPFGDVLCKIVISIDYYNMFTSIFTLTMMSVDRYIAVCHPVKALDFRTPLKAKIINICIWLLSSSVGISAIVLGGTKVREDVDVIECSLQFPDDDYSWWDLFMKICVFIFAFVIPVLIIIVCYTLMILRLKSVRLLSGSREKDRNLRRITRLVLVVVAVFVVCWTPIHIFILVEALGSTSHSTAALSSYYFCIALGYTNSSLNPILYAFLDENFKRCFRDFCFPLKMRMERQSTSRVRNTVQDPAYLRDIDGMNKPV
T2 sequence (P33032 whole entry): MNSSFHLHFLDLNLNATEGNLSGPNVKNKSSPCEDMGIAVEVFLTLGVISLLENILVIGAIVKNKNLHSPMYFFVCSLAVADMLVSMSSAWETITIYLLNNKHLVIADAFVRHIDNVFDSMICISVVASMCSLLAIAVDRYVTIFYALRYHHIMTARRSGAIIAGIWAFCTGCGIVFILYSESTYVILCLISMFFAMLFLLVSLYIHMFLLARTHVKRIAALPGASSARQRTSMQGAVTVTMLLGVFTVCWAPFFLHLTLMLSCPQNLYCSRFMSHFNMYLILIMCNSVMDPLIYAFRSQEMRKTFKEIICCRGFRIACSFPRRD
T3 sequence (P35372 whole entry): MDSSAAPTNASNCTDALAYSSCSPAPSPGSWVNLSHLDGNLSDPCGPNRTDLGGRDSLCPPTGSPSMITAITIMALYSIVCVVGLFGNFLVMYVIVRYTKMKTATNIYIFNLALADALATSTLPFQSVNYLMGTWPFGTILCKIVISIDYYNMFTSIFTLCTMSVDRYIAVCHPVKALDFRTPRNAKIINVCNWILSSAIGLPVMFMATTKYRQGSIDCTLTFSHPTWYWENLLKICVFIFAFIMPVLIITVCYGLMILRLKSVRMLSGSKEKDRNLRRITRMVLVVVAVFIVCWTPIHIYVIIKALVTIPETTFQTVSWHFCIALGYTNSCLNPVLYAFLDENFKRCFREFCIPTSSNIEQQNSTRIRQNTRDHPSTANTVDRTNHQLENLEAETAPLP

SMILES	A11 radioligand binding, percentage inhibition [1]	A5 radioligand binding, percentage inhibition [2]	A7 radioligand binding, percentage inhibition [3]	A8 radioligand binding, percentage inhibition [4]	A9 radioligand binding, percentage inhibition [5]	A3 radioligand binding, percentage inhibition [6]	A1 radioligand binding, percentage inhibition [7]	A6 radioligand binding, percentage inhibition [8]	A2 radioligand binding, percentage inhibition [9]	A4 radioligand binding, percentage inhibition [10]	A10 radioligand binding, percentage inhibition [11]
CO[C@H]1[C@H](O)[C@@H](COCc2cccc(O)c2)OC(OCc2ccc3ccccc3c2)[C@@H]1NC(=O)CCCNC(=N)N (stereo partly shown) [compound 152]	− (“−” indicates less than 50% inhibition at 10 μM)	− (“−” indicates less than 50% inhibition at 10 μM)	+ (“+” indicates greater than 50% inhibition at 10 μM)	− (“−” indicates less than 50% inhibition at 10 μM)	− (“−” indicates less than 50% inhibition at 10 μM)	− (“−” indicates less than 50% inhibition at 10 μM)	− (“−” indicates less than 50% inhibition at 10 μM)	− (“−” indicates less than 50% inhibition at 10 μM)	− (“−” indicates less than 50% inhibition at 10 μM)	− (“−” indicates less than 50% inhibition at 10 μM)	− (“−” indicates less than 50% inhibition at 10 μM)
CO[C@H]1[C@H](O)[C@@H](COCc2cccc(O)c2)OC(OCc2ccccc2)[C@@H]1NC(=O)CCCN (stereo partly shown) [compound 153]	− (“−” indicates less than 50% inhibition at 10 μM)	− (“−” indicates less than 50% inhibition at 10 μM)	− (“−” indicates less than 50% inhibition at 10 μM)	+ (“+” indicates greater than 50% inhibition at 10 μM)	− (“−” indicates less than 50% inhibition at 10 μM)	− (“−” indicates less than 50% inhibition at 10 μM)	− (“−” indicates less than 50% inhibition at 10 μM)	− (“−” indicates less than 50% inhibition at 10 μM)	− (“−” indicates less than 50% inhibition at 10 μM)	− (“−” indicates less than 50% inhibition at 10 μM)	− (“−” indicates less than 50% inhibition at 10 μM)
CO[C@H]1[C@H](O)[C@@H](COCc2cccc(O)c2)OC(OCc2ccccc2)[C@@H]1NC(=O)CCCNC(=N)N (stereo partly shown) [compound 154]	− (“−” indicates less than 50% inhibition at 10 μM)	− (“−” indicates less than 50% inhibition at 10 μM)	− (“−” indicates less than 50% inhibition at 10 μM)	+ (“+” indicates greater than 50% inhibition at 10 μM)	− (“−” indicates less than 50% inhibition at 10 μM)	− (“−” indicates less than 50% inhibition at 10 μM)	− (“−” indicates less than 50% inhibition at 10 μM)	− (“−” indicates less than 50% inhibition at 10 μM)	− (“−” indicates less than 50% inhibition at 10 μM)	− (“−” indicates less than 50% inhibition at 10 μM)	− (“−” indicates less than 50% inhibition at 10 μM)
CO[C@H]1[C@H](O)[C@@H](COCc2cccc(O)c2)OC(OCc2ccc(Cl)cc2)[C@@H]1NC(=O)CNC(=N)N (stereo partly shown) [compound 155]	− (“−” indicates less than 50% inhibition at 10 μM)	+ (“+” indicates greater than 50% inhibition at 10 μM)	− (“−” indicates less than 50% inhibition at 10 μM)	− (“−” indicates less than 50% inhibition at 10 μM)	− (“−” indicates less than 50% inhibition at 10 μM)	− (“−” indicates less than 50% inhibition at 10 μM)	− (“−” indicates less than 50% inhibition at 10 μM)	− (“−” indicates less than 50% inhibition at 10 μM)	− (“−” indicates less than 50% inhibition at 10 μM)	− (“−” indicates less than 50% inhibition at 10 μM)	− (“−” indicates less than 50% inhibition at 10 μM)
CO[C@H]1[C@H](O)[C@@H](COCc2cccc(O)c2)OC(OCc2ccc(Cl)cc2)[C@@H]1NC(=O)CCCN (stereo partly shown) [compound 156]	− (“−” indicates less than 50% inhibition at 10 μM)	+ (“+” indicates greater than 50% inhibition at 10 μM)	− (“−” indicates less than 50% inhibition at 10 μM)	+ (“+” indicates greater than 50% inhibition at 10 μM)	− (“−” indicates less than 50% inhibition at 10 μM)	− (“−” indicates less than 50% inhibition at 10 μM)	− (“−” indicates less than 50% inhibition at 10 μM)	− (“−” indicates less than 50% inhibition at 10 μM)	− (“−” indicates less than 50% inhibition at 10 μM)	− (“−” indicates less than 50% inhibition at 10 μM)	− (“−” indicates less than 50% inhibition at 10 μM)
